Data published in US4788181A, “5-substituted-2',3'-dideoxycytidine compounds with anti-HTLV-III activity” (priority 1986, dated 1988).
“Also recorded” adds a separate entry of the source. Where two headings read alike, the source gives them in different places.

Tests used:
reverse transcriptase = settings: cited from earlier work
HTLV-III/LAV [1] = experiment: HTLV-III/LAV cytopathic effect assay using ATH8 cells (protective effect); format: cell-based, HTLV-IIIB; settings: for doses required for protection (in words): relative to other dideoxy nucleosides / ddC 1; for protection (in words): 200 micromolar; for protective / anti-HTLV-III activity (in words): in vitro
Experimental: ^a The percentage of protective effect of a nucleoside was determined
by the following formula:
100 × [(number of viable cells exposed to HTLVIII and cultured in
the presence of the nucleoside) - (number of viable cells exposed to
HTLVII I cultured in the absence of the nucleoside)]/[(number of viable
cells cultured alone) - (number of viable cells exposed to HTLVIII in the
absence of the nucleoside)].
(§1) HTLV-III/LAV cytopathic effect assay was performed using ATH8 cells as previously described.* Briefly, 2×10^5 ATH8 cells were exposed to HTLV-IIIB virus (2,000 virus particles/cell) for 45 min after treatment with polybrene, resuspended in 2 ml of culture medium containing interleukin 2 in the presence or absence of various concentrations of compounds, and incubated in culture tubes at 37° C. in 5% CO2 /95% air humidifedd atmosphere. Control cells were treated similarly but were not exposed to the virus. At various time points on days 5 to 7 of culture, the total viable cells were counted in a hemocytometer by the trypan blue dye exclusion method.

[2] = Cytotoxicity to ATH8 cells cultured with the nucleoside (trypan blue viable cell count); format: cell-based; settings: human
Experimental: (§2) ^b The percentage of cytotoxicity was determined by the following
(§3) 100 × [1 - (number of viable cells cultured in the presence of the
(§4) nucleoside)/(number of viable cells cultured alone)].
as §1

ATH8 cells = experiment: as above; format: cell-based; settings: in vitro
Experimental: as §2, §3, §4, §1

HTLV-III/LAV [3] = settings: cited from earlier work
HTLV-III/LAV [4] = settings: in vitro, cited from earlier work
[5] = water or body fluids; listed as ddA; cited from earlier work
[6] = Penetration of the blood-brain barrier / entry into the central nervous system
T4^+ lymphocytes = settings: 0.5 and 5.0 micromoles; cited from earlier work
Basicity and protonation = format: physicochemical; settings: relative to 2',3'-dideoxycytidine
mouse fibroblasts = settings: Cancer Research, 1975, 35, 1547-1554; cited from earlier work
[7] = 10 μM, ATH8 cells, read-out: Cytotoxicity (%)
[8] = 50 μM, ATH8 cells, read-out: Cytotoxicity (%)
[9] = 0.5 μM, ATH8 cells, read-out: Cytotoxicity (%)
[10] = 200 μM, ATH8 cells, read-out: Cytotoxicity (%)
[11] = 5 μM, ATH8 cells, read-out: Cytotoxicity (%)

In the case of `Cc1ccc(C(=O)Nc2ccc(S(=O)(=O)O)c3cc(S(=O)(=O)O)cc(S(=O)(=O)O)c23)cc1NC(=O)c1cccc(NC(=O)Nc2cccc(C(=O)Nc3cc(C(=O)Nc4ccc(S(=O)(=O)O)c5cc(S(=O)(=O)O)cc(S(=O)(=O)O)c45)ccc3C)c2)c1` [suramin], the “inhibition of reverse transcriptase (in words)” value (from here on “inhibition … (in words)”) (reverse transcriptase) is given as “inhibit this enzyme”.

With `Nc1ncn([C@H]2CC[C@@H](CO)O2)c(=O)n1` [Compound 10, 2',3'-Dideoxy-5-azacytidine] the “anti-HTLV-III activity (in words)” value (HTLV-III/LAV [1]; 10 micromolar) was “significant anti-HTLV-III activity”, the cytotoxicity at 1 µM ([2]; ATH8 cells) was 13% and the cytotoxicity at 10 µM [2, 7] was 19%. For the same compound, the cytotoxicity at 50 µM [2, 8] was 62% and the “cytotoxicity (in words)” value (ATH8 cells) was “clearly more cytotoxic than ddC”.

With `Nc1ccn([C@H]2CC[C@@H](COP(=O)(O)O)O2)c(=O)n1` [Compound 24] the “doses required for protection (in words)” value (HTLV-III/LAV [1]) was “significant protection was beginning to be observed at doses approximately ten times higher than were required for activity with ddC 1”, the cytotoxicity at 0.5 µM [2, 9] was 0% and the cytotoxicity at 2 µM ([2]; ATH8 cells) was 7%. It also gave a cytotoxicity at 10 µM [2, 7] of 0%.

In the case of `Cc1cn([C@H]2C[C@H](N=[N+]=[N-])[C@@H](CO)O2)c(=O)[nH]c1=O` [AZT, 3-azido-3'-deoxythymidine], the “activity in test systems (in words)” value (HTLV-III/LAV [3]) is listed as “a compound with activity in test systems”.

With `Cc1cn([C@H]2CC[C@@H](CO)O2)c(=O)[nH]c1=O` [Compound 3, dideoxythymidine] the “protection (in words)” value (HTLV-III/LAV [1]) was “considerable protection”, the inhibition at 10 µM (HTLV-III/LAV [1]; Human immunodeficiency virus 1, ATH-8, 10 μM, ATH8 cells, days 5 to 7) was 3% and the “doses required for protection (in words)” value (HTLV-III/LAV [1]) was “unusually high doses”. It also gave a cytotoxicity at 10 µM [2, 7] of 8%, a cytotoxicity at 50 µM [2, 8] of 8% and a cytotoxicity at 100 µM ([2]; ATH8 cells) of 13%. The cytotoxicity at 200 µM [2, 10] was 6%, the cytotoxicity at 500 µM ([2]; 500 μM, ATH8 cells) was 30% and the cytotoxicity at 1000 µM ([2]; 1000 μM, ATH8 cells) was 40%. The cytotoxicity at 2000 µM ([2]; 2000 μM, ATH8 cells) was 53%.

With `Cc1cn([C@H]2CC[C@@H](COP(=O)(O)O)O2)c(=O)[nH]c1=O` [Compound 26] the “protection (in words)” value (HTLV-III/LAV [1]) was “essentially inactive”, the cytotoxicity at 10 µM ([2]; ath8 cells) was 9% and the cytotoxicity at 50 µM ([2]; ath8 cells) was 9%. The cytotoxicity at 200 µM ([2]; ath8 cells) was 10%.

Compound `Nc1ncnc2c1ncn2[C@H]1CC[C@@H](CO)O1` [Compound 2] has a cytotoxicity at 1 µM ([2]; ATH8 cells) of 0%, a cytotoxicity at 5 µM [2, 11] of 6% and a cytotoxicity at 10 µM [2, 7] of 0%. It also gave a cytotoxicity at 50 µM [2, 8] of 0%, a cytotoxicity at 100 µM ([2]; ATH8 cells) of 0% and a cytotoxicity at 200 µM [2, 10] of 0%. The “protection against the cytopathic effects of HTLV-III/LAV (in words)” value (from here on “protection … of HTLV-III/LAV (in words)”) (HTLV-III/LAV [4]) was “very effective” and the “solubility (in words)” value [5] was “relatively insoluble; also recorded: not very soluble in water or body fluids”.

With `Nc1nc(=O)n([C@H]2CC[C@@H](CO)O2)cc1Br` [Compound 17, 2',3'-Dideoxy-5-bromocytidine] the “protective / anti-HTLV-III activity (in words)” value (HTLV-III/LAV [1]) was “neither protective nor cytotoxic”, the cytotoxicity at 1 µM ([2]; ATH8 cells) was 14% and the cytotoxicity at 10 µM [2, 7] was 14%. For the same compound, the cytotoxicity at 30 µM ([2]; 30 μM, ATH8 cells) was 2%, the cytotoxicity at 200 µM [2, 10] was 0% and the “cytotoxicity (in words)” value (ATH8 cells) was “neither protective nor cytotoxic”.

In the case of `Nc1ccn([C@H]2CC[C@@H](CO)O2)c(=O)n1` [Compound 1, 2',3'-dideoxycytidine], the cytotoxicity at 0.05 µM ([2]; ath8 cells) is reported as 0%, the cytotoxicity at 0.5 µM ([2]; ath8 cells) is reported as 0% and the cytotoxicity at 5 µM ([2]; ath8 cells) is reported as 0%. For the same compound, the cytotoxicity at 50 µM ([2]; ath8 cells) was 30%, the “penetration of the blood-brain barrier / entry into the central nervous system” value [6] was “enter the central nervous system, very poorly” and the “protection … of HTLV-III/LAV (in words)” value (HTLV-III/LAV [4]) was “most potent member of the group on the basis of molarity”. For the same compound, the “protection … of HTLV-III/LAV (in words)” value (HTLV-III/LAV [4]; listed as ddC) was “potent protective agent; also recorded: very effective” and the “cytotoxicity (in words)” value (T4^+ lymphocytes) was “non-cytotoxic”.

For `Cc1cn([C@H]2CC[C@@H](CO)O2)c(=O)nc1N` [Compound 15, 2',3'-Dideoxy-5-methylcytidine], the “protective / anti-HTLV-III activity (in words)” value (HTLV-III/LAV [1]) was “devoid of protective effects”, the MCC ([2]; ath8 cells, read-out: concentration at which toxicity began to show) was 100 µM and the cytotoxicity at 2 µM ([2]; ATH8 cells) was 23%. The cytotoxicity at 10 µM [2, 7] was 27% and the cytotoxicity at 100 µM ([2]; ATH8 cells) was 44%.

For `Nc1nc(=O)n([C@H]2CC[C@@H](CO)O2)cc1F` [Compound 22, 2',3'-Dideoxy-5-fluorocytidine], the inhibition at 0.05 µM (HTLV-III/LAV [1]; Human immunodeficiency virus 1, ATH-8, 0.05 μM, ATH8 cells, days 5 to 7) was 5%, the “protective / anti-HTLV-III activity (in words)” value (HTLV-III/LAV [1]) was “as protective of HTLV-III infected cells as the lead compound 1” and the cytotoxicity at 0.05 µM ([2]; 0.05 μM, ATH8 cells, read-out: Cytotoxicity (%)) was 5%. The cytotoxicity at 0.5 µM [2, 9] was 0%, the cytotoxicity at 5 µM [2, 11] was 0% and the cytotoxicity at 50 µM [2, 8] was 9%. The “penetration of the blood-brain barrier / entry into the central nervous system” value [6] was “penetrate the blood-brain barrier”, the basicity (Basicity and protonation) was “less basic than the parent compound” and the protonation (Basicity and protonation) was “less protonated than the parent compound”.

In the case of `Cc1cn([C@H]2C[C@H](O)[C@@H](CO)O2)c(=O)nc1N` [Compound 16, 5-methyl-2'-deoxycytidine], the “protective / anti-HTLV-III activity (in words)” value (HTLV-III/LAV [1]) is reported as “neither protective nor cytotoxic” and the “cytotoxicity (in words)” value (ATH8 cells) is reported as “neither protective nor cytotoxic”.

In the case of `Nc1ncnc2c1ncn2[C@H]1CC[C@@H](COP(=O)(O)O)O1` [Compound 25, 2',3'-dideoxyadenosine-5'-phosphate], the inhibition at 1 µM (HTLV-III/LAV [1]; Human immunodeficiency virus 1, ATH-8, 1 μM, ATH8 cells, days 5 to 7) is reported as 25%, the “protective / anti-HTLV-III activity (in words)” value (HTLV-III/LAV [1]) is reported as “just as active as the nucleoside 2, over a wide concentration range” and the “potency of ddAMP relative to ddA (in words)” value (HTLV-III/LAV [1]; low concentrations) is reported as “not more potent at low concentrations”. It also gave a cytotoxicity at 1 µM ([2]; ATH8 cells) of 2%, a cytotoxicity at 5 µM [2, 11] of 10% and a cytotoxicity at 10 µM [2, 7] of 6%. The cytotoxicity at 50 µM [2, 8] was 4%, the cytotoxicity at 100 µM ([2]; ATH8 cells) was 0% and the cytotoxicity at 200 µM [2, 10] was 5%. The “cytotoxicity in mouse fibroblasts (in words)” value (mouse fibroblasts) was “cytotoxic consequences” and the “entry into mouse fibroblasts” value (mouse fibroblasts) was “appeared to enter mouse fibroblasts intact”.

For `NC(=O)c1ncn([C@@H]2O[C@H](CO)[C@@H](O)[C@H]2O)n1` [ribavirin], the “inhibition … (in words)” value (reverse transcriptase) is given as “inhibit this enzyme”.

For `O=C(O)P(=O)(O)O` [foscarnet], the “inhibition … (in words)” value (reverse transcriptase) is given as “inhibit this enzyme”.
